# Results as given in BindingDB's records for doi:10.1111/cbdd.12604 (Nanjing University, 2015).
# Molecular target: 72 kDa type IV collagenase (Homo sapiens, UniProt P08253)
# Assay: MMP-2 Inhibition Assay
# Description: This esterase assay used 4-nitrophenylacetate as a substrate. Initially, the rhMMP-2 was diluted to 100 µg/mL with 1 mM APMA in assay buffer. Later, the reaction was incubated at 37℃ for 1 hour. Then the rhMMP-2 was diluted to 0.2 µg/mL in assay buffer, whereas the substrate was diluted to 20 µM by assay buffer. To each well of 96-well plate, 50 µL diluted rhMMP-2 was loaded along with 100 µL diverse concentration of test compounds. The reaction was started by adding 50 μL of 20 μM substrate to each well. After progress in kinetic mode for 5 minutes, the results were read at excitation and emission wavelengths of 320 nm and 405 nm, respectively.
# 72 kDa type IV collagenase, sequence (P08253 whole entry): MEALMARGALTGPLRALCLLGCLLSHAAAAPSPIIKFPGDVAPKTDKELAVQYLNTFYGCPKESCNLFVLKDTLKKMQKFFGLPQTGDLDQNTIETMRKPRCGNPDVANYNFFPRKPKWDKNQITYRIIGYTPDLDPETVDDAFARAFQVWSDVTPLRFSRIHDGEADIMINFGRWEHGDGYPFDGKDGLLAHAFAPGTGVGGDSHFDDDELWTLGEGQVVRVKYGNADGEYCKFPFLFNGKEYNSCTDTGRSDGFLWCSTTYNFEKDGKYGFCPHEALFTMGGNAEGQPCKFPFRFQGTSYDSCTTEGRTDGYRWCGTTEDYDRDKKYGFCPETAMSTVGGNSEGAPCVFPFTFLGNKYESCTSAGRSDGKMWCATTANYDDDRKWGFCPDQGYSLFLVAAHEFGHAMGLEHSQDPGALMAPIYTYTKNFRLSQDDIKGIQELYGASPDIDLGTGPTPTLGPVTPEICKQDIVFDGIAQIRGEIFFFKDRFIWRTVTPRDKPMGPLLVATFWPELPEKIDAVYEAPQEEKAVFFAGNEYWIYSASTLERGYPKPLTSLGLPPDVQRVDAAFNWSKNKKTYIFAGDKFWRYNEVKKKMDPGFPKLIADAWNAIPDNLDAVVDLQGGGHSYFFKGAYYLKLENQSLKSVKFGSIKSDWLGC
row,SMILES,IC50
1,"NS(=O)(=O)c1ccc(N2N=C(c3ccc(Cl)c(Cl)c3)CC2c2ccccc2O)cc1 (stereo unspecified) [4-(3-(3,4-Dichlorobenzenebase)-5-(2-hydroxyphenyl)-4,5-dihydropyrazole) benzene sulfonamide (4g)]",12.9 µM
2,"COc1cccc(C2=NN(c3ccc(S(N)(=O)=O)cc3)C(c3ccccc3O)C2)c1 (stereo unspecified) [4-(5-(2-Hydroxyphenyl)-3-(3-oxygenmethylphenyl)-4,5-dihydropyrazole) benzene sulfonamide (4e)]",1.81 µM
3,"NS(=O)(=O)c1ccc(N2N=C(c3ccc(Br)cc3)CC2c2cc(Br)ccc2O)cc1 (stereo unspecified) [4-(5-(5-Bromine-2-hydroxyphenyl)-3-(4-brominephenyl)-4,5-dihydropyrazole) benzene sulfonamide (4v)]",8.73 µM
4,"NS(=O)(=O)c1ccc(N2N=C(c3ccc(Cl)cc3)CC2c2cc(Br)ccc2O)cc1 (stereo unspecified) [4-(5-(5-Bromine-2-hydroxyphenyl)-3-(4-chlorobenzene)-4,5-dihydropyrazole) benzene sulfonamide (4u)]",15.8 µM
5,"NS(=O)(=O)c1ccc(N2N=C(c3ccccc3Cl)CC2c2cc(Cl)ccc2O)cc1 (stereo unspecified) [4-(5-(5-Chloro-2-hydroxyphenyl) -3 - (2 - chlorobenzene) - 4, 5 - dihydropyrazole) benzene sulfonamide (4i)]",16.4 µM
6,"NS(=O)(=O)c1ccc(N2N=C(c3ccc(Cl)c(Cl)c3)CC2c2ccc(Cl)cc2O)cc1 (stereo unspecified) [4-(5-(5-Chloro-2-hydroxyphenyl)-3-(3,4-dichlorobenzenebase)-4,5-dihydropyrazole) benzene sulfonamide (4n)]",16.5 µM
7,"NS(=O)(=O)c1ccc(N2N=C(c3ccccc3)CC2c2ccc(Cl)cc2O)cc1 (stereo unspecified) [4-(5-(5-Chloro-2-hydroxyphenyl)-3-phenyl)-4,5-dihydro benzene sulfonamide pyrazole) (4j)]",13.5 µM
8,"C[C@@]1(O)c2cccc(O)c2C(O)=C2C(=O)[C@]3(O)C(O)=C(C(N)=O)C(=O)C[C@@H]3C[C@@H]21 [(4aS,5aS,6S,12aR)-1,6,10,11,12a-pentahydroxy-6-methyl-3,12-dioxo-4,4a,5,5a-tetrahydrotetracene-2-carboxamide]",1.13 µM
9,"COc1ccc(C2=NN(c3ccc(S(N)(=O)=O)cc3)C(c3ccc(Cl)cc3O)C2)cc1 (stereo unspecified) [-(5-(5-Chloro-2-hydroxyphenyl)-3-(4-methylphenyloxygen)-4,5-dihydropyrazole) benzene sulfonamide (4l)]",4.62 µM

# Other lines, results leading:
row,IC50,SMILES
1,11.5 µM,"NS(=O)(=O)c1ccc(N2N=C(c3ccccc3Cl)CC2c2ccccc2O)cc1 (stereo unspecified) [4-(3-(2-Chlorobenzene)-5-(2-hydroxyphenyl)-4,5-dihydropyrazole) benzene sulfonamide (4b)]"
2,4.65 µM,"Cc1ccc(C2=NN(c3ccc(S(N)(=O)=O)cc3)C(c3ccccc3O)C2)cc1C (stereo unspecified) [4-(3-(3,4-Dimethylphenyl)-5-(2-hydroxyphenyl)-4,5-dihydropyrazole) benzene sulfonamide (4f)]"
3,18.9 µM,"NS(=O)(=O)c1ccc(N2N=C(c3ccc(Br)cc3)CC2c2cc(Cl)ccc2O)cc1 (stereo unspecified) [4-(3-(4-Brominephenyl)-5-(5-chloro-2-hydroxyphenyl)-4,5-dihydropyrazole) benzene sulfonamide (4m)]"
4,24.7 µM,"NS(=O)(=O)c1ccc(N2N=C(c3ccc(F)cc3)CC2c2ccccc2O)cc1 (stereo unspecified) [4-(5-(2-Hydroxyphenyl)-3-(4-fluorinatedphenyl)-4,5-dihydropyrazole) benzene sulfonamide (4x)]"
5,1.83 µM,"COc1ccc(C2=NN(c3ccc(S(N)(=O)=O)cc3)C(c3ccccc3O)C2)cc1 (stereo unspecified) [4-(5-(2-Hydroxyphenyl)-3-(4-methoxyphenyl)-4,5-dihydropyrazole) benzene sulfonamide (4y)]"
6,15 µM,"NS(=O)(=O)c1ccc(N2N=C(c3ccccc3Cl)CC2c2cc(Br)ccc2O)cc1 (stereo unspecified) [4-(5-(5-Bromine-2-hydroxyphenyl)-3-(2-chlorobenzene)-4,5-dihydropyrazole) benzene sulfonamide (4t)]"
7,16.2 µM,"NS(=O)(=O)c1ccc(N2N=C(c3ccc(Cl)c(Cl)c3)CC2c2cc(Br)ccc2O)cc1 (stereo unspecified) [4-(5-(5-Bromine-2-hydroxyphenyl)-3-(3,4-dichlorobenzene)-4,5-dihydropyrazole) benzene sulfonamide (4w)]"
8,3.23 µM,"COc1cccc(C2=NN(c3ccc(S(N)(=O)=O)cc3)C(c3cc(Br)ccc3O)C2)c1 (stereo unspecified) [4-(5-(5-Bromine-2-hydroxyphenyl)-3-(3-oxygenmethylphenyl)-4,5-dihydropyrazole) benzene sulfonamide (4r)]"
9,12.8 µM,"NS(=O)(=O)c1ccc(N2N=C(c3ccccc3)CC2c2cc(Br)ccc2O)cc1 (stereo unspecified) [4-(5-(5-Bromine-2-hydroxyphenyl)-3-phenyl-4,5-dihydropyrazole) benzene sulfonamide (4q)]"
10,2.13 µM,"COc1cccc(C2=NN(c3ccc(S(N)(=O)=O)cc3)C(c3cc(Cl)ccc3O)C2)c1 (stereo unspecified) [4-(5-(5-Chloro-2-hydroxyphenyl)-3-(3-oxygenmethylphenyl)-4,5-dihydropyrazole) benzene sulfonamide (4p)]"
11,11.3 µM,"NS(=O)(=O)c1ccc(N2N=C(c3ccc(Cl)cc3)CC2c2cc(Cl)ccc2O)cc1 (stereo unspecified) [4-(5-(5-Chloro-2-hydroxyphenyl)-3-(4-chlorobenzene)-4,5-dihydropyrazole) benzene sulfonamide (4k)]"
12,3.84 µM,"CCOc1ccc(C2=NN(c3ccc(S(N)(=O)=O)cc3)C(c3ccc(Cl)cc3O)C2)cc1 (stereo unspecified) [4-(5-(5-Chloro-2-hydroxyphenyl)-3-(4-phenylethyloxygen)-4,5-dihydropyrazole) benzene sulfonamide (4o)]"
